The source of these data is PubChem BioAssay AID179 (DTP/NCI, 2004).

“And” between values parts separate entries of the source, which are not always exact repeats. Equal values may be shown once. The source made the active and inactive calls.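 Rule for the calls: active = compounds giving half or more protection of infected cells from virus-caused growth loss, again on retest; inactive = the rest.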

This assay relates to CEM cells HIV-1 protection, formazan growth assay. Briefly: NCI AIDS Antiviral Assay. As to conditions: for IC50: measured here: growth of uninfected CEM cells. Summed up:
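Human CEM cells, uninfected and HIV-1-infected, received five drug concentrations, and growth was read by soluble formazan assay. Compounds giving at least 50% protection were retested; reproducible 100% protection defined confirmed active.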

One may read the EC50 as the concentration that produces a half-maximal response. One may read the IC50 as the concentration at which inhibition is half-maximal. Low values mean greater potency in that assay, high ones weaker potency in that assay. As to `CN1C(=O)C(C)(O)Sc2ccccc21` (stereo not drawn), the EC50 was > 1200 µM and the IC50 came out at 501 µM. The matching figures for `Cc1ccc(S(=O)(=O)N/N=c2\c(C)c(C3=NS(=O)(=O)c4cc(S(N)(=O)=O)c(Cl)cc4N3)oc3c(Cl)cc(Cl)cc23)cc1`: > 69.2 µM and > 69.2 µM. The matching figures for `Nc1c(C(=O)OCc2ccccc2)[nH]c(=O)[nH]c1=O`: > 200 µM and > 200 µM. With `CN(C)CC1CCCc2ccccc2C1=O` (stereo not drawn), the outcome was inactive.

On to `COC(=O)/C(=N/NC(=O)C[N+](C)(C)C)C(C(=O)OC)C(=O)C(=O)Nc1ccc(F)cc1` (stereo not drawn), for which the EC50 is > 145 µM and the IC50 is > 145 µM. Consider `Cc1oc(N)c(S(=O)(=O)c2cc3ccccc3n(O)c2=N)c1C`, for which the EC50 was > 200 µM and the IC50 is 95.5 µM. As for `CC1=C(C)CC2(SC1)C(=O)c1ccccc1C2=O`, the result was inactive. For the compound `Cc1cc2nc(C=C(C(F)(F)F)C(F)(F)F)sc2cc1C`, the EC50 was > 20 µM and the IC50 is 3.63 µM. For `Cc1c2c(cc3c1C(=O)C(=O)C([C@@H](C)CO)=C3O)C(C)(C)CCC2` the same measures were > 200 µM and 15.1 µM. For `Cc1cc(C(=C2C=CC(=Nc3ccc(S(=O)(=O)O)cc3)C=C2)c2ccc(Nc3ccc(S(=O)(=O)O)cc3)cc2)cc(S(=O)(=O)O)c1N` the same measures were 30.2 µM and 49 µM.

In the case of `O=C(Nc1ccc([N+](=O)[O-])cn1)Nc1cc([N+](=O)[O-])ccc1F`, the EC50 is > 200 µM and the IC50 came to 17.4 µM. For `CC1CCN(CC(=O)N2c3ccccc3Sc3cc4ccccc4cc32)CC1` the same measures were > 151 µM and > 151 µM.

In the case of `COc1ccccc1NC(=O)C1=C(C)NC(C)=C(C(=O)Nc2ccccc2OC)C1c1cccc2c1OCO2`, the result was inactive. As for `O=C1c2ccccc2CCCCCCCCCCC12OCCCO2`, the EC50 was > 200 µM and the IC50 was > 200 µM. Consider `CCCCS(=O)CCC(N)C(=O)O` (stereo not drawn), for which the EC50 is > 100 µM and the IC50 is > 100 µM. In the case of `O=C1C[C@H](c2ccc(O)c(O)c2)Oc2cc(O)cc(O)c21`, the EC50 was > 631 µM and the half-maximal inhibitory concentration (IC50) amounted to 97.7 µM. As for `Cc1c(C)c(C)n(C2OC(CO)C(O)C(O)C2O)c(=S)c1C#N` (stereo not drawn), the EC50 was > 100 µM and the IC50 is > 100 µM.

As to `O=C1[C@@H]2C(c3ccc(Cl)cc3Cl)=NO[C@@H]2C(=O)N1c1ccc(Cc2ccc(N3C(=O)[C@H]4C(c5ccc(Cl)cc5Cl)=NO[C@H]4C3=O)cc2)cc1`, the EC50 is > 7.08 µM and the IC50 is > 7.08 µM. On to `C/C=C1/[C@@H]2C[C@H]3C4=Nc5ccccc5C4(C4[C@@H](O)ON3[C@@H]14)[C@@H]2C(=O)OC`, for which the EC50 is > 200 µM and the IC50 is > 200 µM. As to `CC1(C)C2CCC(O)(C2)C1N` (stereo not drawn), the EC50 is > 200 µM and the IC50 was > 200 µM. For `OCCNc1nc(Cl)nc(Cl)n1`, the EC50 was > 200 µM and the IC50 is > 200 µM. In the case of `O=C(NCc1cc(CNC(=O)c2cccc(O)c2O)cc(CNC(=O)c2cccc(O)c2O)c1)c1cccc(O)c1O`, the EC50 is > 200 µM and the concentration for half-maximal inhibition (IC50) worked out at 1.95 µM.

With `CC(=O)Oc1ccc(S(=O)(=O)c2ccc(OC(C)=O)cc2)cc1`, the EC50 is > 200 µM and the half-inhibitory concentration (IC50) is 9.12 µM. On to `COc1ccc2nc3cc([N+](=O)[O-])ccc3c(NCCCN(CCO)CCO)c2c1`, for which the EC50 is > 200 µM and the IC50 came out at 2.51 µM. Take `Cn1c(=O)c(CC(C(=O)O)C(=O)O)nc2ccccc21`: the EC50 was > 200 µM and the IC50 was > 200 µM. Turning to `CC(=O)N1CC(O)(c2ccccc2)CSc2ccccc21` (stereo not drawn), the EC50 was > 107 µM and the IC50 was > 107 µM. For `CCCCCCCCCC(=O)CC(=O)c1ccc(O)cc1O`, the EC50 was > 117 µM and the IC50 came to 69.2 µM. In the case of `CCOC(=O)c1c(-c2ccccc2)c(OC)cn1C`, the EC50 was > 200 µM and the half-inhibitory concentration (IC50) is > 200 µM. On to `CC(O)C1(CNc2cc(Cl)nc(N)n2)CC(CCc2ccccc2)C1` (stereo not drawn), for which the EC50 is > 20 µM and the IC50 was determined as 7.76 µM. The matching figures for `COC1=CC2=CCC3C(CC[C@@]4(C)C3CC[C@@H]4C(C)=O)[C@@]2(C)CC1` (stereo partly drawn): > 200 µM and 74.1 µM. The matching figures for `O=P(O)(OCCc1ccccc1)Oc1ccccc1O`: > 200 µM and > 200 µM. The matching figures for `CC(=O)c1ccc(NC(=O)C(=O)CC(=O)c2sc(-n3nc(-c4ccccc4)cc3-c3ccccc3)nc2C)cc1`: > 155 µM and > 155 µM. On to `[Co].[O-]c1cccnc1C=Nc1ccccc1.[OH3+]`, for which the EC50 was > 240 µM and the IC50 stood at 35.5 µM. The matching figures for `Cc1sc2c(c1C)C(=O)c1cccn1-2`: > 200 µM and 170 µM. As for `O=C1OCC2C1C1c3ccccc3C(O)c3ccccc3C21` (stereo not drawn), the outcome was inactive. `NC(Cc1ccc(S(=O)(=O)O)cc1)C(=O)NC(Cc1ccc(S(=O)(=O)O)cc1)C(=O)NC(Cc1ccc(S(=O)(=O)O)cc1)C(=O)O` (stereo not drawn): the EC50 was > 200 µM and the half-maximal inhibitory concentration (IC50) is > 200 µM. Consider `CC(Cc1ccc2c(c1)OCO2)N(C)C(=O)C1=CCN(C)CC1` (stereo not drawn), for which the EC50 was > 200 µM and the IC50 is > 200 µM. Regarding `O=C(C[P+](c1ccccc1)(c1ccccc1)c1ccccc1)C[P+](c1ccccc1)(c1ccccc1)c1ccccc1`, the EC50 was > 200 µM and the IC50 is 0.759 µM.

For `O=C1/C(=C\c2ccc(Br)cc2)CCCc2ccccc21`, the EC50 is > 200 µM and the IC50 came to 22.4 µM. For `N#C/C(=C/n1c(=S)[nH]c2ccc([N+](=O)[O-])cc21)c1ccc([N+](=O)[O-])cc1` the same measures were > 200 µM and 117 µM. `CC(NC(=O)/C(=C/c1ccccc1)NC(=O)c1ccccc1)C(=O)O` (stereo not drawn): the EC50 is > 200 µM and the IC50 is > 200 µM. Consider `N[C@H]1c2c(Br)sc(Br)c2C(=O)[C@H]1O`, for which the EC50 is > 200 µM and the IC50 was 7.59 µM. For the compound `N#Cc1c2c(c(-c3cccs3)n(C3OC(CO)C(O)C(O)C3O)c1=S)CCc1ccccc1-2` (stereo not drawn), the outcome was inactive. Turning to `C/C(CC(O)(C(F)(F)Cl)C(F)(F)Cl)=N\NC(N)=S`, the EC50 was > 200 µM and the concentration for half-maximal inhibition (IC50) was 110 µM. The matching figures for `CS/C(=N/N=C/c1ccc2ccccc2n1)SS/C(=N/N=C\c1ccc2ccccc2n1)SC`: > 200 µM and 178 µM. For `NCCN(CCN)CCN` the same measures were > 151 µM and > 151 µM. For `c1csc(-c2cscc2-c2cccs2)c1` the same measures were > 200 µM and 37.2 µM. As to `O=C1/C(=C/c2ccc([N+](=O)[O-])cc2)CNC/C1=C\c1ccc([N+](=O)[O-])cc1`, the EC50 was > 2 µM and the IC50 was found to be 0.363 µM.

On to `O=C1CCCCC/C1=C\c1ccc([N+](=O)[O-])cc1`, for which the EC50 is > 200 µM and the half-maximal inhibitory concentration (IC50) turned out to be 25.7 µM. Take `CCCCCCCCCCCCCCCC(=O)NCC(COP(=O)([O-])OCC[N+](C)(C)C)OC` (stereo not drawn): the result was inactive.

Turning to `c1ccc2nc3c(cc2c1)[nH]c1ccccc13`, the EC50 is > 339 µM and the IC50 was 204 µM. For `COc1cc([N+](=O)[O-])cc2c1NC(=O)C2(C)SC` (stereo not drawn) the same measures were > 200 µM and 30.9 µM. On to `Cc1ccccc1C1SCc2nc3ccccc3n21` (stereo not drawn), for which the outcome was inactive. Take `CC(C)C1N(N2C(=O)CS(=O)(=O)C2C(C)C)C(=O)CS1(=O)=O` (stereo not drawn): the EC50 was > 200 µM and the IC50 is > 200 µM. As for `CN(C)C(F)=PC(F)(F)F` (stereo not drawn), the EC50 was > 251 µM and the IC50 was > 251 µM. For the compound `Oc1c(-c2ccccc2)nc2cnccn12`, the EC50 is > 447 µM and the IC50 was > 447 µM. As for `O=C(CSc1nc(-c2ccccc2)c(-c2ccccc2)[nH]1)NNC(=S)Nc1ccccc1`, the EC50 was > 56.2 µM and the IC50 was found to be 29.5 µM.

With `C=C=C(C)C(c1ccccc1)N(C)C` (stereo not drawn), the EC50 is > 1050 µM and the IC50 is > 1050 µM.

For `Cc1ccc(/C=N/Nc2cc(C)c3ccccc3n2)s1`, the EC50 is > 200 µM and the IC50 worked out at 10.7 µM. `Cc1ccc(CC2(OCCN(C)C)CCC(C(C)(C)C)CC2)cc1` (stereo not drawn): the EC50 was > 200 µM; the half-maximal inhibitory concentration (IC50) is 3.16 µM and 2.95 µM. Consider `CC1(C)C(=NNC(=S)NN)C(C)(C)C1=NNC(=S)NN`, for which the EC50 was > 794 µM and the IC50 stood at 151 µM.

For `O=C1CS(=O)(=O)C(c2cccc(Cl)c2)N1N1C(=O)CS(=O)(=O)C1c1cccc(Cl)c1` (stereo not drawn), the EC50 is > 200 µM and the IC50 is > 200 µM. As for `O=c1ccn(CC2COC(CP(=O)(O)O)O2)c(=O)[nH]1` (stereo not drawn), the EC50 was > 200 µM and the IC50 is > 200 µM.

In the case of `COc1cc(Oc2c(O)c(C)c(OC)c(C(C)=O)c2O)c(C(C)=O)c(O)c1C`, the EC50 was > 93.3 µM and the half-inhibitory concentration (IC50) was > 93.3 µM. As to `Cc1c2cc(Cl)ccc2n2c(=O)c3ccccc3[nH]c(=O)c12`, the EC50 was > 15.8 µM and the IC50 is > 15.8 µM. As to `COc1c(C(CC(C)C)OC(C)=O)ccc2c1C(=O)OCc1cc(C)cc(O)c1O2` (stereo not drawn), the EC50 was > 200 µM and the IC50 stood at 10.5 µM.

Consider `NC(CCCCCCCCCCP(=O)(O)O)C(=O)O` (stereo not drawn), for which the EC50 is > 200 µM and the IC50 was > 200 µM.

For the compound `CC(=O)C(=Cc1cccc(F)c1)C(C)=O`, the EC50 is > 126 µM and the IC50 worked out at 64.6 µM.

For `CCN=C(NNc1ccc([N+](=O)[O-])cc1)P(=O)(OC(C)C)OC(C)C`, the EC50 was > 36.3 µM and the IC50 is > 36.3 µM. Take `NC(=O)NC(=O)c1ccco1`: the EC50 was > 200 µM and the IC50 is > 200 µM.

With `CN(C)CCOc1cccc2c1C(=O)c1ccccc1C2=O`, the result was inactive. For `CCOC(=O)c1nc2c(C)nc(N(C)C)nc2n(C)c1=O`, the EC50 is > 200 µM and the IC50 is > 200 µM. Take `O=C(NCCO)c1ccc[c]([Sb](=[O])([OH])[OH])c1`: the EC50 is 23.4 µM and the IC50 stood at 398 µM.
